From article PMC5218480 (PLoS ONE, 2017) come the findings set out here.

The assay deals with MV-4-11 cells. The experiment in a line: Gene expression microarray analysis (Affymetrix PrimeView) and GSEA. Type of assay: cell-based, human. Further details: RFU PODN (11730768_x_at) / Fold change /veh PODN (11730768_x_at) / RFU LINC00158 (11744669_a_at) / Fold change /veh LINC00158 (11744669_a_at) / RFU DUSP10 (11751237_a_at) / Fold change /veh DUSP10 (11751237_a_at) / RFU ID3 (11757404_x_at) / Fold change /veh ID3 (11757404_x_at) / RFU PLEKHG5 (11737974_s_at) / Fold change /veh PLEKHG5 (11737974_s_at) / RFU LRRC4B (11730491_at) / Fold change /veh LRRC4B (11730491_at) / RFU GIMAP4 (11747438_a_at) / Fold change /veh GIMAP4 (11747438_a_at) / RFU KRT8 (11758183_x_at) / Fold change /veh KRT8 (11758183_x_at) / RFU CNN1 (11734310_a_at) / Fold change /veh CNN1 (11734310_a_at) / RFU VPS37D (11726825_at) / Fold change /veh VPS37D (11726825_at) / RFU C10orf10 (11716522_x_at) / Fold change /veh C10orf10 (11716522_x_at) / RFU KIR2DL2 /// KIR2DL4 /// KIR2DL5A /// KIR2DL5B /// KIR2DS1 /// KIR2DS2 /// KIR2DS3 /// KIR2DS4 /// KIR3DL3 /// KIR3DL3 /// KIR3DS1 (11738374_at) / Fold change /veh KIR2DL2 /// KIR2DL4 /// KIR2DL5A /// KIR2DL5B /// KIR2DS1 /// KIR2DS2 /// KIR2DS3 /// KIR2DS4 /// KIR3DL3 /// KIR3DL3 /// KIR3DS1 (11738374_at) / RFU C1QL1 (11718748_at) / Fold change /veh C1QL1 (11718748_at) / RFU TMPRSS4 (11747572_a_at) / Fold change /veh TMPRSS4 (11747572_a_at) / RFU HAMP (11756126_x_at) / Fold change /veh HAMP (11756126_x_at) / RFU RNFT2 (11725882_a_at) / Fold change /veh RNFT2 (11725882_a_at) / RFU NR4A2 (11747474_a_at) / Fold change /veh NR4A2 (11747474_a_at) / RFU ABCC12 (11746883_a_at) / Fold change /veh ABCC12 (11746883_a_at) / RFU TMEM136 (11760407_x_at) / Fold change /veh TMEM136 (11760407_x_at) / RFU CLDN22 /// WWC2 (11732394_at) / Fold change /veh CLDN22 /// WWC2 (11732394_at) / RFU HLA-DPB1 (11760878_x_at) / Fold change /veh HLA-DPB1 (11760878_x_at) / RFU SPINT1 (11716480_a_at) / Fold change /veh SPINT1 (11716480_a_at) / RFU GAP43 (11754022_s_at) / Fold change /veh GAP43 (11754022_s_at) / RFU A4GNT (11735810_at) / Fold change /veh A4GNT (11735810_at) / RFU PRB3 (11715151_x_at) / Fold change /veh PRB3 (11715151_x_at) / RFU TUBB4B (11761932_at) / Fold change /veh TUBB4B (11761932_at) / RFU CAPN14 (11732068_a_at) / Fold change /veh CAPN14 (11732068_a_at) / RFU TMCC2 (11721928_a_at) / Fold change /veh TMCC2 (11721928_a_at) / RFU IRGQ (11745062_a_at) / Fold change /veh IRGQ (11745062_a_at) / RFU FAM174B (11720279_a_at) / Fold change /veh FAM174B (11720279_a_at) / RFU TMPRSS4 (11748680_a_at) / Fold change /veh TMPRSS4 (11748680_a_at) / RFU FAM212B (11763350_a_at) / Fold change /veh FAM212B (11763350_a_at) / RFU PLEKHG5 (11743358_a_at) / Fold change /veh PLEKHG5 (11743358_a_at) / RFU ZSCAN30 (11745921_a_at) / Fold change /veh ZSCAN30 (11745921_a_at) / RFU CMKLR1 (11741424_a_at) / Fold change /veh CMKLR1 (11741424_a_at) / RFU LOC101060620 /// MAPK8IP1 (11723275_at) / Fold change /veh LOC101060620 /// MAPK8IP1 (11723275_at) / RFU SPTSSB (11747773_x_at) / Fold change /veh SPTSSB (11747773_x_at) / RFU PRSS12 (11739890_at) / Fold change /veh PRSS12 (11739890_at) / RFU BIN1 (11741810_x_at) / Fold change /veh BIN1 (11741810_x_at) / RFU WNT11 (11732464_a_at) / Fold change /veh WNT11 (11732464_a_at) / RFU C10orf10 (11716521_a_at) / Fold change /veh C10orf10 (11716521_a_at) / RFU C5orf56 (11738089_at) / Fold change /veh C5orf56 (11738089_at) / RFU CYB561 (11721691_x_at) / Fold change /veh CYB561 (11721691_x_at) / RFU ANKRD19P (11752326_a_at) / Fold change /veh ANKRD19P (11752326_a_at) / RFU OR2T12 /// OR2T33 /// OR2T8 (11738714_s_at) / Fold change /veh OR2T12 /// OR2T33 /// OR2T8 (11738714_s_at) / RFU VCAN (11748164_a_at) / Fold change /veh VCAN (11748164_a_at) / RFU JSRP1 (11732532_at) / Fold change /veh JSRP1 (11732532_at) / RFU KRTAP10-11 (11738290_x_at) / Fold change /veh KRTAP10-11 (11738290_x_at) / RFU MYO3A (11730013_a_at) / Fold change /veh MYO3A (11730013_a_at) / RFU EBF3 (11725865_a_at) / Fold change /veh EBF3 (11725865_a_at) / RFU CAMK2N1 (11719241_x_at) / Fold change /veh CAMK2N1 (11719241_x_at) / RFU C5orf56 (11738088_a_at) / Fold change /veh C5orf56 (11738088_a_at) / RFU OLFML3 (11715873_a_at) / Fold change /veh OLFML3 (11715873_a_at) / RFU LOC100653217 /// NTM (11731650_a_at) / Fold change /veh LOC100653217 /// NTM (11731650_a_at) / RFU MAPK11 (11762145_a_at) / Fold change /veh MAPK11 (11762145_a_at) / RFU FIZ1 (11724087_x_at) / Fold change /veh FIZ1 (11724087_x_at) / RFU OASL (11726364_x_at) / Fold change /veh OASL (11726364_x_at) / RFU SOX15 (11748057_x_at) / Fold change /veh SOX15 (11748057_x_at) / RFU CD79A (11719716_a_at) / Fold change /veh CD79A (11719716_a_at) / RFU HIST1H1D (11736915_at) / Fold change /veh HIST1H1D (11736915_at) / RFU CASKIN2 (11723855_a_at) / Fold change /veh CASKIN2 (11723855_a_at) / RFU LOC730098 (11760151_x_at) / Fold change /veh LOC730098 (11760151_x_at) / RFU OR4N2 (11742367_at) / Fold change /veh OR4N2 (11742367_at) / RFU PRRT2 (11749266_a_at) / Fold change /veh PRRT2 (11749266_a_at) / RFU SNX32 (11753110_a_at) / Fold change /veh SNX32 (11753110_a_at) / RFU CDHR5 (11726645_a_at) / Fold change /veh CDHR5 (11726645_a_at) / RFU RCAN1 (11760418_a_at) / Fold change /veh RCAN1 (11760418_a_at) / RFU FAM167A (11723789_a_at) / Fold change /veh FAM167A (11723789_a_at) / RFU FAM26E (11764081_at) / Fold change /veh FAM26E (11764081_at) / RFU ISYNA1 (11749810_s_at) / Fold change /veh ISYNA1 (11749810_s_at) / RFU ACY1 (11761880_at) / Fold change /veh ACY1 (11761880_at) / RFU 11764098_at / Fold change /veh 11764098_at / RFU SAMD14 (11745864_x_at) / Fold change /veh SAMD14 (11745864_x_at) / RFU NPB (11741838_a_at) / Fold change /veh NPB (11741838_a_at) / RFU TMPRSS6 (11731388_a_at) / Fold change /veh TMPRSS6 (11731388_a_at) / RFU KRTAP10-2 (11738614_at) / Fold change /veh KRTAP10-2 (11738614_at) / RFU ARHGAP8 /// PRR5-ARHGAP8 (11727945_x_at) / Fold change /veh ARHGAP8 /// PRR5-ARHGAP8 (11727945_x_at) / RFU KRTAP5-7 /// NADSYN1 (11734609_at) / Fold change /veh KRTAP5-7 /// NADSYN1 (11734609_at) / RFU RASL12 (11751679_a_at) / Fold change /veh RASL12 (11751679_a_at) / RFU CDKN2B (11736163_a_at) / Fold change /veh CDKN2B (11736163_a_at) / RFU PRF1 (11729649_at) / Fold change /veh PRF1 (11729649_at) / RFU, ZNF638 /// ZNF638-IT1 / Fold change vs veh, ZNF638 /// ZNF638-IT1 / RFU, PANK3 / Fold change vs veh, PANK3 / RFU, SH3YL1 / Fold change vs veh, SH3YL1 / RFU, ZEB2 / Fold change vs veh, ZEB2 / RFU, NRIP1 / Fold change vs veh, NRIP1 / RFU, PTTG1IP / Fold change vs veh, PTTG1IP / RFU, CAPN2 / Fold change vs veh, CAPN2 / RFU, MED14 / Fold change vs veh, MED14 / RFU, SNORA58 / Fold change vs veh, SNORA58 / RFU, C1orf63 / Fold change vs veh, C1orf63 / RFU, LRRFIP1 / Fold change vs veh, LRRFIP1 / RFU, NDUFAF7 / Fold change vs veh, NDUFAF7 / RFU, SLC12A2 / Fold change vs veh, SLC12A2 / RFU, IBTK / Fold change vs veh, IBTK / RFU, ESF1 / Fold change vs veh, ESF1 / Fold change vs veh, TMEM50B / RFU, TAOK1 / Fold change vs veh, TAOK1 / RFU, ACBD3 / Fold change vs veh, ACBD3 / RFU, TMA16 / Fold change vs veh, TMA16 / RFU, RWDD3 / Fold change vs veh, RWDD3 / RFU, BCAT1 / Fold change vs veh, BCAT1 / RFU, EDEM3 / Fold change vs veh, EDEM3 / RFU, TMEM33 / Fold change vs veh, TMEM33 / RFU, WDR75 / Fold change vs veh, WDR75 / RFU, AHCTF1 / Fold change vs veh, AHCTF1 / RFU, TFRC / Fold change vs veh, TFRC / RFU, ZDHHC17 / Fold change vs veh, ZDHHC17 / RFU, NOM1 / Fold change vs veh, NOM1 / RFU, ARL8B / Fold change vs veh, ARL8B / RFU, ZBTB11 / Fold change vs veh, ZBTB11 / RFU, TAMM41 / Fold change vs veh, TAMM41 / RFU, KIAA1704 /// LOC100996395 / Fold change vs veh, KIAA1704 /// LOC100996395 / RFU, ING1 / Fold change vs veh, ING1 / RFU, TRMT61B / Fold change vs veh, TRMT61B / RFU, FUBP3 / Fold change vs veh, FUBP3 / RFU, TP53 / Fold change vs veh, TP53 / RFU, TNKS2 / Fold change vs veh, TNKS2 / RFU, ZFP14 / Fold change vs veh, ZFP14 / RFU, ACTR2 / Fold change vs veh, ACTR2 / RFU, PPP3R1 / Fold change vs veh, PPP3R1 / RFU, PIK3R1 / Fold change vs veh, PIK3R1 / RFU, HNRNPA1 / Fold change vs veh, HNRNPA1 / RFU, RNF170 / Fold change vs veh, RNF170 / RFU, ZNF28 / Fold change vs veh, ZNF28 / RFU, RNGTT / Fold change vs veh, RNGTT / RFU, OGT / Fold change vs veh, OGT / RFU, BRD1 / Fold change vs veh, BRD1 / RFU, MARS / Fold change vs veh, MARS / RFU, ZNF655 / Fold change vs veh, ZNF655 / RFU, FAHD1 / Fold change vs veh, FAHD1 / RFU, BDP1 / Fold change vs veh, BDP1 / RFU, LRRCC1 / Fold change vs veh, LRRCC1 / RFU, ARID1A / Fold change vs veh, ARID1A / RFU, ZNF146 / Fold change vs veh, ZNF146 / RFU, ZNF330 / Fold change vs veh, ZNF330 / RFU, GPN3 / Fold change vs veh, GPN3 / RFU, C9orf123 / Fold change vs veh, C9orf123 / RFU, N4BP2L2 / Fold change vs veh, N4BP2L2 / RFU, ARFIP1 / Fold change vs veh, ARFIP1 / RFU, FAM179B / Fold change vs veh, FAM179B / RFU, BCL10 / Fold change vs veh, BCL10 / RFU, UHRF1BP1L / Fold change vs veh, UHRF1BP1L / RFU, BET1 / Fold change vs veh, BET1 / RFU, CNOT2 / Fold change vs veh, CNOT2 / RFU, ZNF268 / Fold change vs veh, ZNF268 / Fold change vs veh, ZNF507 / RFU, DGCR2 / Fold change vs veh, DGCR2 / RFU, WDSUB1 / Fold change vs veh, WDSUB1 / Fold change vs veh, HSP90B1 /// MIR3652 / RFU, ADSS / Fold change vs veh, ADSS / RFU, GK / Fold change vs veh, GK / RFU, ZNF148 / Fold change vs veh, ZNF148 / RFU, TAF9 / Fold change vs veh, TAF9 / RFU, SLC1A5 / Fold change vs veh, SLC1A5 / RFU, SLMO2 / Fold change vs veh, SLMO2 / RFU, ABCC4 / Fold change vs veh, ABCC4 / RFU, LOC101060439 /// RAP1B / Fold change vs veh, LOC101060439 /// RAP1B / RFU, RFX7 / Fold change vs veh, RFX7 / RFU, GTPBP10 / Fold change vs veh, GTPBP10 / RFU, CNEP1R1 / Fold change vs veh, CNEP1R1 / RFU, BIVM-ERCC5 /// ERCC5 / Fold change vs veh, BIVM-ERCC5 /// ERCC5 / RFU, ILF3 / Fold change vs veh, ILF3 / RFU 11762660_at / Fold change /veh 11762660_at / RFU VCAN (11757783_s_at) / Fold change /veh VCAN (11757783_s_at) / RFU DDX43 (11728927_at) / Fold change /veh DDX43 (11728927_at) / RFU KRT8 (11758188_x_at) / Fold change /veh KRT8 (11758188_x_at) / RFU NKD1 (11759106_at) / Fold change /veh NKD1 (11759106_at) / RFU SRD5A1 (11742802_a_at) / Fold change /veh SRD5A1 (11742802_a_at) / RFU TPSAB1 /// TPSB2 (11721975_s_at) / Fold change /veh TPSAB1 /// TPSB2 (11721975_s_at) / RFU GSTM3 (11746129_a_at) / Fold change /veh GSTM3 (11746129_a_at) / RFU IL23R (11737362_x_at) / Fold change /veh IL23R (11737362_x_at) / RFU TMEM51 (11727254_a_at) / Fold change /veh TMEM51 (11727254_a_at) / RFU PIWIL2 (11732686_x_at) / Fold change /veh PIWIL2 (11732686_x_at) / RFU ORM1 (11744905_x_at) / Fold change /veh ORM1 (11744905_x_at) / RFU CCDC152 (11743942_at) / Fold change /veh CCDC152 (11743942_at) / RFU ECM1 (11717891_a_at) / Fold change /veh ECM1 (11717891_a_at) / RFU IL23R (11748794_a_at) / Fold change /veh IL23R (11748794_a_at) / RFU TNFAIP8L3 (11732012_x_at) / Fold change /veh TNFAIP8L3 (11732012_x_at) / RFU MBOAT4 (11741988_at) / Fold change /veh MBOAT4 (11741988_at) / RFU 11764193_at / Fold change /veh 11764193_at / RFU TMEM53 (11763286_at) / Fold change /veh TMEM53 (11763286_at) / RFU MAGEB2 (11727129_at) / Fold change /veh MAGEB2 (11727129_at) / RFU TMEM200A (11744735_a_at) / Fold change /veh TMEM200A (11744735_a_at) / RFU CCDC152 (11751479_a_at) / Fold change /veh CCDC152 (11751479_a_at) / RFU FAM211A (11726209_a_at) / Fold change /veh FAM211A (11726209_a_at) / RFU RGS16 (11746705_a_at) / Fold change /veh RGS16 (11746705_a_at) / RFU VCAN (11755009_s_at) / Fold change /veh VCAN (11755009_s_at) / RFU RHOB (11743442_s_at) / Fold change /veh RHOB (11743442_s_at) / RFU RGS16 (11720943_a_at) / Fold change /veh RGS16 (11720943_a_at) / RFU RGS16 (11720944_at) / Fold change /veh RGS16 (11720944_at) / RFU, VPS4B / Fold change vs veh, VPS4B / RFU, CREB1 / Fold change vs veh, CREB1 / RFU, DNAJC13 / Fold change vs veh, DNAJC13 / RFU, GNAQ / Fold change vs veh, GNAQ / RFU, CDK5R1 / Fold change vs veh, CDK5R1 / RFU, ZRANB3 / Fold change vs veh, ZRANB3 / RFU, CUL4A / Fold change vs veh, CUL4A / RFU, CCNY / Fold change vs veh, CCNY / RFU, UFL1 / Fold change vs veh, UFL1 / RFU, COG3 / Fold change vs veh, COG3 / RFU, DIAPH2 / Fold change vs veh, DIAPH2 / RFU, SKA2 / Fold change vs veh, SKA2 / RFU, AFF3 / Fold change vs veh, AFF3 / RFU, LMF1 / Fold change vs veh, LMF1 / RFU, IPO11 / Fold change vs veh, IPO11 / RFU, DFFB / Fold change vs veh, DFFB / RFU, FOXP1 / Fold change vs veh, FOXP1 / RFU, CARD8 / Fold change vs veh, CARD8 / RFU, STRN3 / Fold change vs veh, STRN3 / RFU, ADK / Fold change vs veh, ADK / RFU, RASSF2 / Fold change vs veh, RASSF2 / RFU, WIPF1 / Fold change vs veh, WIPF1 / RFU, LARP1B / Fold change vs veh, LARP1B / RFU, RASA1 / Fold change vs veh, RASA1 / RFU, RB1 / Fold change vs veh, RB1 / RFU, PPFIA1 / Fold change vs veh, PPFIA1 / RFU, MAT2A / Fold change vs veh, MAT2A / RFU, CCT5 / Fold change vs veh, CCT5 / RFU, WDR92 / Fold change vs veh, WDR92 / RFU, CUX1 / Fold change vs veh, CUX1 / RFU, TTC7A / Fold change vs veh, TTC7A / RFU, TMEM135 / Fold change vs veh, TMEM135 / RFU, DEPTOR / Fold change vs veh, DEPTOR / RFU, CPM / Fold change vs veh, CPM / RFU, DNAJB6 / Fold change vs veh, DNAJB6 / RFU, CACNA2D3 / Fold change vs veh, CACNA2D3 / RFU, DTX4 / Fold change vs veh, DTX4 / RFU, TFCP2 / Fold change vs veh, TFCP2 / RFU, GMCL1 /// GMCL1P1 / Fold change vs veh, GMCL1 /// GMCL1P1 / RFU, AEBP2 / Fold change vs veh, AEBP2 / RFU, SNHG1 /// SNORD22 /// SNORD25 /// SNORD26 /// SNORD27 /// SNORD28 /// SNORD29 /// SNORD31 / Fold change vs veh, SNHG1 /// SNORD22 /// SNORD25 /// SNORD26 /// SNORD27 /// SNORD28 /// SNORD29 /// SNORD31 / Fold change (Aza/veh), C12orf56 (ProbeSet 11735607_a_at) / Fold change (ACY-1035/veh), C12orf56 (ProbeSet 11735607_a_at) / Fold change (Aza/veh), FGFR1OP (ProbeSet 11751329_s_at) / Fold change (ACY-1035/veh), FGFR1OP (ProbeSet 11751329_s_at) / Fold change (Aza/veh), VPS36 (ProbeSet 11739960_a_at) / Fold change (ACY-1035/veh), VPS36 (ProbeSet 11739960_a_at) / RFU SYPL1 (11715823_x_at) / Fold change /veh SYPL1 (11715823_x_at) / RFU IGFBP7 (11715501_s_at) / Fold change /veh IGFBP7 (11715501_s_at) / RFU REEP3 (11722064_at) / Fold change /veh REEP3 (11722064_at) / RFU IGLL1 (11728026_x_at) / Fold change /veh IGLL1 (11728026_x_at): dose or concentration left out as unconfirmed. Particulars: ProbeSet 11739696_s_at; LIST D.

Regarding `Nc1ccc(-c2cccs2)cc1NC(=O)c1ccc2c(c1)cc(C1CC1)n2CCN1CCOCC1` [ACY-1035], the “Fold change vs veh, AFF3” value is on record as 1.00.
